What was measured:
Assay type in all cases: cell-based
[1] = system: PSEUDOMONAS AERUGINOSA DPHD-5263; experiment: In vitro antibacterial activity, MIC, BHI agar dilution; details: P. aeruginosa DPHD-5263, unit assumed
[2] = system: PSEUDOMONAS AERUGINOSA BMH10; experiment: as above; details: P. aeruginosa BMH10, unit assumed
[3] = system: PSEUDOMONAS AERUGINOSA 5007; experiment: as above; details: P. aeruginosa 5007, unit assumed
[4] = system: MYCOBACTERIUM SMEGMATIS ATCC 114; experiment: as above; details: M. smegmatis ATCC 114, unit assumed
[5] = system: STAPHYLOCOCCUS EPIDERMIDIS 3519; details: S. epidermidis 3519; BHI agar; unit assumed
ESCHERICHIA COLI H560 = experiment: In vitro antibacterial activity, MIC, BHI agar dilution; details: E. coli H560, unit assumed
M[…] ATCC 9341 = experiment: as above; details: M. luteus ATCC 9341, unit assumed
Summary of the method: (§1)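 BHI agar dilution, 12 plates; inoculum 1:100 (1:10 slow-growing strains), Steers replicator; 35-37° C, 20-24 h. MIC = lowest conc. with no growth/slight haze/sparse colonies vs growth control, visual read. Erythromycin A reference plate.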

EN[…] ATCC 8043 = experiment: as above; details: E. faecium ATCC 8043, unit assumed
Summary of the method: as §1

STR[…] 508 = experiment: as above; details: S. agalactiae CMX 508, unit assumed
Summary of the method: as §1

M[…] ATCC 4698 = experiment: as above; details: M. luteus ATCC 4698, unit assumed
Summary of the method: as §1

[6] = system: STAPHYLOCOCCUS AUREUS ATCC 6538P; experiment: as above; details: S. aureus ATCC 6538P, 35-37° C., 20 to 24 hours, unit assumed
[7] = system: STREPTOCOCCUS BOVIS A-5169; experiment: as above; details: S. bovis A-5169, unit assumed
[8] = system: STREPTOCOCCUS PYOGENES 930; experiment: as above; details: S. pyogenes 930, unit assumed
[9] = system: STAPHYLOCOCCUS AUREUS A-5278; experiment: as above; details: S. aureus A-5278, unit assumed
[10] = system: STREPTOCOCCUS PYOGENES EES61; experiment: as above; details: S. pyogenes EES61, unit assumed
[11] = system: STAPHYLOCOCCUS AUREUS NCTC10649M; experiment: as above; details: S. aureus NCTC10649M, unit assumed
ESCHERICHIA COLI SS = experiment: as above; details: E. coli SS, unit assumed
ESCHERICHIA COLI DC-2 = experiment: as above; details: E. coli DC-2, unit assumed
ESCHERICHIA COLI KNK 437 = details: E. coli KNK 437; BHI agar; unit assumed
PSEUDOMONAS CEPACIA 296I = experiment: In vitro antibacterial activity, MIC, BHI agar dilution; details: P. cepacia 296I, unit assumed
[12] = system: ENTEROBACTER AEROGENES ATCC 13048; experiment: as above; details: E. aerogenes ATCC 13048, unit assumed
[13] = system: PSEUDOMONAS AERUGINOSA DPHD-2862; experiment: as above; details: P. aeruginosa DPHD-2862, unit assumed
[14] = system: STAPHYLOCOCCUS AUREUS CMX 642A; experiment: as above; details: S. aureus CMX 642A, unit assumed
[15] = system: STAPHYLOCOCCUS AUREUS CMX 553; experiment: as above; details: S. aureus CMX 553, unit assumed
[16] = system: STREPTOCOCCUS PYOGENES PIU 2548; experiment: as above; details: S. pyogenes PIU 2548, unit assumed
[17] = system: PSEUDOMONAS AERUGINOSA K799/WT; experiment: as above; details: P. aeruginosa K799/WT, unit assumed
ESCHERICHIA COLI JUHL = details: E. coli JUHL; BHI agar; unit assumed
[18] = system: PSEUDOMONAS AERUGINOSA K799/61; experiment: In vitro antibacterial activity, MIC, BHI agar dilution; details: P. aeruginosa K799/61, unit assumed
H. Influenza Dill AMP R = experiment: In vitro antibacterial activity against H. Influenza Dill AMP R, MIC; details: separate assay, unit assumed
Experimental: Representative compounds of the present invention were assayed in vitro for antibacterial activity as follows: Twelve petri dishes containing successive aqueous dilutions of the test compound mixed with 10 mL of sterilized Brain Heart Infusion (BHI) agar (Difco 0418-01-5) were prepared. Each plate was inoculated with 1:100 (or 1:10 for slow-growing strains, such as Micrococcus and Streptococcus) dilutions of up to 32 different microorganisms, using a Steers replicator block. The inoculated plates were incubated at 35-37° C. for 20 to 24 hours. In addition, a control plate, using BHI agar containing no test compound, was prepared and incubated at the beginning and end of each test.
After incubation, each plate was visually inspected. The minimum inhibitory concentration (MIC) was defmed as the lowest concentration of drug yielding no growth, a slight haze, or sparsely isolated colonies on the inoculum spot as compared to the growth control.
In a separate assay representative compounds of the invention were assayed in vitro for antibacterial activity against the H. Influenza Dill AMP R strain, according to the protocol described above.

[19] = system: PROVIDENCIA STUARTII CMX 640; details: P. stuartii CMX 640; BHI agar; unit assumed
CANDIDA ALBICANS CCH 442 = experiment: In vitro antibacterial activity, MIC, BHI agar dilution; details: C. albicans CCH 442, unit assumed
[20] = system: STAPHYLOCOCCUS AUREUS 1775; experiment: as above; details: S. aureus 1775, unit assumed
[21] = system: KLEBSIELLA PNEUMONIAE ATCC 8045; experiment: as above; details: K. pneumoniae ATCC 8045, unit assumed
[22] = system: STAPHYLOCOCCUS AUREUS A5177; experiment: as above; details: S. aureus A5177, unit assumed

Measured: MIC

CCC1OC(=O)C(C)C(=O)C(C)C(OC2OC(C)CC(N(C)C)C2O)C(C)(OC)CC(C)C2=NC(c3ccccc3)C(c3ccccc3)N3C(=O)OC1(C)C3C2C (centres unmarked) [Example 7]
100 µg/mL: [9] | [20]
0.39 µg/mL: M[…] ATCC 9341 | EN[…] ATCC 8043
0.2 µg/mL: STR[…] 508 | [7] | [10]
3.1 µg/mL: [6] | [11] | ESCHERICHIA COLI SS | [14] | [15]
64 µg/mL: H. Influenza Dill AMP R
6.2 µg/mL: [18]
1.56 µg/mL: [4] | [5] | M[…] ATCC 4698 | [16]
50 µg/mL: [8]
not listed: [22]
> 100 µg/mL: all other assays above

CC[C@H]1OC(=O)[C@H](C)C(=O)[C@H](C)[C@@H](O[C@@H]2O[C@H](C)C[C@H](N(C)C)[C@H]2O)[C@](C)(OC)C[C@@H](C)C2=NCC(CNCc3ccccc3)N3C(=O)O[C@@]1(C)[C@H]3[C@H]2C (some centres unmarked) [Example 131]
0.1 µg/mL: EN[…] ATCC 8043
12.5 µg/mL: ESCHERICHIA COLI H560
0.2 µg/mL: M[…] ATCC 4698 | ESCHERICHIA COLI SS
50 µg/mL: [12] | [17] | ESCHERICHIA COLI JUHL
1.56 µg/mL: [4]
4 µg/mL: H. Influenza Dill AMP R
0.02 µg/mL: M[…] ATCC 9341 | [10]
0.39 µg/mL: [22] | [5] | [6] | [11] | [14] | [15]
0.78 µg/mL: [16] | [18]
0.05 µg/mL: STR[…] 508
25 µg/mL: ESCHERICHIA COLI DC-2 | ESCHERICHIA COLI KNK 437 | PSEUDOMONAS CEPACIA 296I
not listed: [7] | [21]
> 100 µg/mL: all other assays above

— patent US6274715A, “Tricyclic erythromycin derivatives” (priority 1997, dated 2001)
